Laboratory results from patent publication US11339161B2, “Triazolo pyridines as modulators of gamma-secretase” (Boehringer Ingelheim International GmbH, priority 2017, dated 2022).
Like-named read-outs stand apart in the source and are kept apart here.

How the values were obtained:
[1] = tested on: Aβ42 production; assay: Inhibition of Aβ42 production in H4 neuroglioma cells stably expressing human APP695 (MSD electrochemiluminescence); assay type: cell-based; conditions: for modulation of γ-secretase (in words): tables 4a/4b
Experimental: (§1) Cells were plated out to near confluency. The compounds to be tested were received as 10 mM stocks in 100% DMSO. A dilution series was initially generated in 100% DMSO and then diluted 200-fold in cell culture media such that the tested concentration range was 30 μM to 0.1 nM and the final DMSO concentration was 0.5%. The diluted compounds were incubated with the cells for 22 hours in an incubator at 37° C. and 5% CO2. Aβ42 levels were measured post-incubation from the supernatant of the cells using an Aβ42 specific electrochemiluminescence assay provided by Meso Scale Discovery (Catalog #L21CA-1). The measurement of Aβ42 levels were performed according to the manufacturer's protocol.

[2] = tested on: Aβ total; assay: Aβ total levels in H4 neuroglioma cells stably expressing human APP695 (MSD electrochemiluminescence); assay type: cell-based; conditions: selectivity ratio vs. Aβtotal
Experimental: as §1
Aβ total levels were likewise determined using a specific electrochemiluminescence assay provided by Meso Scale Discovery (Catalog #L21ZA-1) according to the manufacturer's protocol.

[3] = molecular target: ABL1 (Homo sapiens, UniProt P00519); assay: Z'-LYTE SelectScreen biochemical kinase assay ABL1
Chain of ABL1 (P00519 whole entry): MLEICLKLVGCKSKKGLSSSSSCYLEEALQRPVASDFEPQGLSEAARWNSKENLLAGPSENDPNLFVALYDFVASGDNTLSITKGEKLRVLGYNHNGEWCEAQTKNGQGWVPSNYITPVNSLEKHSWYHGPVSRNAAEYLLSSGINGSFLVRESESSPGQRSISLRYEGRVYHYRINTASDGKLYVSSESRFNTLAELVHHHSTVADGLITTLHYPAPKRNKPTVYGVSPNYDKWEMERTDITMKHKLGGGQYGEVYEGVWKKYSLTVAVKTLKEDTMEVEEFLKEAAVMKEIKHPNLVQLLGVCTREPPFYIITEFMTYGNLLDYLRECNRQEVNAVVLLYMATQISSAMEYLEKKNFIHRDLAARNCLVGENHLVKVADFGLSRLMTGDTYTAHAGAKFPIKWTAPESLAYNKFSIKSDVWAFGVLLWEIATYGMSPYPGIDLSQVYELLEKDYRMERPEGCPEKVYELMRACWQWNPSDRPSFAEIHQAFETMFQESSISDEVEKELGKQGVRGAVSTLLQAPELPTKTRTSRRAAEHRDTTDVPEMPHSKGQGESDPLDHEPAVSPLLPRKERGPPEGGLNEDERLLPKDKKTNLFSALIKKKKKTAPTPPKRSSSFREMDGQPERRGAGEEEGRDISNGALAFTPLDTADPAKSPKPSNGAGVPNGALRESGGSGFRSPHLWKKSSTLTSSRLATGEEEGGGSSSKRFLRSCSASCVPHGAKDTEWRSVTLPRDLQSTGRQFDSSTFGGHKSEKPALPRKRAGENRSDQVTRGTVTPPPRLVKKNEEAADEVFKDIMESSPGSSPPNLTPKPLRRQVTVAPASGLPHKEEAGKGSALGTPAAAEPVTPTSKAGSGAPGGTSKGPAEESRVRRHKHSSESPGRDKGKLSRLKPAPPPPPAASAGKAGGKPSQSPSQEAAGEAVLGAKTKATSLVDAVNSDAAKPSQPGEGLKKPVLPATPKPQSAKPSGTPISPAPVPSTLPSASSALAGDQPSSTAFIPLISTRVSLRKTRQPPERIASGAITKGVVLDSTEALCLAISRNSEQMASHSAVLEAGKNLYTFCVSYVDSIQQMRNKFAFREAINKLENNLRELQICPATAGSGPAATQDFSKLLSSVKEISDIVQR
From the text: (§2) Thermo Fisher Scientific SelectScreen™ Biochemical Kinase Profiling Service Z′-LYTE™ Screening Protocol and Assay Conditions Assay Theory
(§3) The […] biochemical assay employs a fluorescence-based, coupled-enzyme format and is based on the differential sensitivity of phosphorylated and non-phosphorylated peptides to proteolytic cleavage. The peptide substrate is labeled with two fluorophores—one at each end—that make up a FRET pair. In the primary reaction, the kinase transfers the gamma-phosphate of ATP to a single tyrosine, serine or threonine residue in a synthetic FRET-peptide. In the secondary reaction, a site-specific protease recognizes and cleaves non-phosphorylated FRET-peptides. Phosphorylation of FRET-peptides suppresses cleavage by the Development Reagent. Cleavage disrupts FRET between the donor (i.e., coumarin) and acceptor (i.e., fluorescein) fluorophores on the FRET-peptide, whereas uncleaved, phosphorylated FRET-peptides maintain FRET. A ratiometric method, which calculates the ratio (Emission Ratio=Coumarin emission (445 nm)/Fluorescein emission (520 nm)) of donor emission to acceptor emission after excitation of the donor fluorophore at 400 nm, is used to quantitate reaction progress, as shown in the equation below. A significant benefit of this ratiometric method for quantitating reaction progress is the elimination of well-to-well variations in FRET-peptide concentration and signal intensities. As a result, the assay yields very high Z′-factor values (>0.7) at a low percent phosphorylation. Both cleaved and uncleaved FRET-peptides contribute to the fluorescence signals and therefore to the Emission Ratio. The extent of phosphorylation of the FRET-peptide can be calculated from the Emission Ratio. The Emission Ratio will remain low if the FRET-peptide is phosphorylated (i.e., no kinase inhibition) and will be high if the FRET-peptide is non-phosphorylated (i.e., kinase inhibition).
(§4) The Test Compounds are screened in 1% DMSO (final) in the well. For 10 point titrations, 3-fold serial dilutions are conducted from the starting concentration of the customer's choosing.
(§5) All Peptide/Kinase Mixtures are diluted to a 2× working concentration in the appropriate Kinase Buffer (see section Kinase Specific Assay Conditions for a complete description).
(§6) All ATP Solutions are diluted to a 4× working concentration in Kinase Buffer (50 mM HEPES pH 7.5, 0.01% BRIJ-35, 10 mM MgCl2, 1 mM EGTA). ATP Km apparent is previously determined using a Z″-LYTE assay.
(§7) The Development Reagent is diluted in Development Buffer (see section Kinase-Specific Assay Conditions—Direct and Cascade for a complete description).
(§8) Bar-coded Corning, low volume NBS, black 384-well plate (Corning Cat. #4514) • 1. 100 nL—100× Test Compound in 100% DMSO • 2. 2.4 μL—Kinase buffer • 3. 5 μL—2× Peptide/Kinase Mixture • 4. 2.5 μL—4×ATP Solution • 5. 30—second plate shake • 6. 60—minute Kinase Reaction incubation at room temperature • 7. 5 μL—Development Reagent Solution • 8. 30—second plate shake • 9. 60—minute Development Reaction incubation at room temperature • 10. Read on fluorescence plate reader and analyze the data Z′-LYTE Assay Controls
(§9) SelectScreen Kinase Profiling Service uses XLfit from IDBS. The dose response curve is curve fit to model number 205 (sigmoidal dose-response model).
(§10) The 2×ABL1/Tyr 02 mixture is prepared in 50 mM HEPES pH 7.5, 0.01% BRIJ-35, 10 mM MgCl2, 1 mM EGTA. The final 10 μL Kinase Reaction consists of 0.29-1.26 ng ABL1 and 2 μM Tyr 02 in 50 mM HEPES pH 7.5, 0.01% BRIJ-35, 10 mM MgCl2, 1 mM EGTA. After the 1 hour Kinase Reaction incubation, 5 μL of a 1:128 dilution of Development Reagent A is added.

[4] = molecular target: RET (Homo sapiens, UniProt P07949); assay: Z'-LYTE SelectScreen biochemical kinase assay RET
Chain of RET (P07949 29-1114): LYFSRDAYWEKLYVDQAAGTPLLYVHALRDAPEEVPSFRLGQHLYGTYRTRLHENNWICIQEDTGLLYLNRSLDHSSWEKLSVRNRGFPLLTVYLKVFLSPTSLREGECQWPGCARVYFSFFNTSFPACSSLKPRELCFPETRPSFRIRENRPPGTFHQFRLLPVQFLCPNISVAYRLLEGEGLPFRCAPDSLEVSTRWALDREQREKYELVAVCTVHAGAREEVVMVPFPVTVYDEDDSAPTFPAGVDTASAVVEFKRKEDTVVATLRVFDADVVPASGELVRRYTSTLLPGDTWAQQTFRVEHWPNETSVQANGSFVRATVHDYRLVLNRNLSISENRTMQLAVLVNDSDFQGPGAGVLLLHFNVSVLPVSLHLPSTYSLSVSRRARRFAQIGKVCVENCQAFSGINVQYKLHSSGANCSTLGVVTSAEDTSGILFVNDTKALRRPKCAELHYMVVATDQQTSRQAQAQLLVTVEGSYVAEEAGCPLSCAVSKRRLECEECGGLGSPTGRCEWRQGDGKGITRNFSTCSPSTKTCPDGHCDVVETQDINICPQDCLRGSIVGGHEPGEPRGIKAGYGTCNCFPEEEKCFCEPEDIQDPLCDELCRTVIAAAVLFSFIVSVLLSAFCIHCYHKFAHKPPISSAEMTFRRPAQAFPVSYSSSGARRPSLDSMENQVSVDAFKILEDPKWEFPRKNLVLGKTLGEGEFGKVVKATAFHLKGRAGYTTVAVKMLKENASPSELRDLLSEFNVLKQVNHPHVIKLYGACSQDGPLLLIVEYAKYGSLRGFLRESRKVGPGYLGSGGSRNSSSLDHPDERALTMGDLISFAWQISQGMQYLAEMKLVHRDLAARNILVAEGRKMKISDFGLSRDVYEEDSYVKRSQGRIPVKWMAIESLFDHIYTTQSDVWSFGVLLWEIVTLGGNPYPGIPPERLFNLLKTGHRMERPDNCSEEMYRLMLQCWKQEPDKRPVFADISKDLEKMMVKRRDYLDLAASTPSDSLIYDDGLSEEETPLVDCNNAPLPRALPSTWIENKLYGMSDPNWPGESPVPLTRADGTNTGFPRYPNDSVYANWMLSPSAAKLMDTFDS
From the text: as §2, §3, §4, §5, §6, §7, §8, §9
as §10, with “2×RET/Tyr” for “2×ABL1/Tyr”, “0.49-3.64” for “0.29-1.26”, “RET” for “ABL1”

[5] = molecular target: RPS6KB1 (p70S6K) (Homo sapiens, UniProt P23443); assay: Z'-LYTE SelectScreen biochemical kinase assay RPS6KB1 (p70S6K)
Chain of RPS6KB1 (p70S6K) (P23443 whole entry): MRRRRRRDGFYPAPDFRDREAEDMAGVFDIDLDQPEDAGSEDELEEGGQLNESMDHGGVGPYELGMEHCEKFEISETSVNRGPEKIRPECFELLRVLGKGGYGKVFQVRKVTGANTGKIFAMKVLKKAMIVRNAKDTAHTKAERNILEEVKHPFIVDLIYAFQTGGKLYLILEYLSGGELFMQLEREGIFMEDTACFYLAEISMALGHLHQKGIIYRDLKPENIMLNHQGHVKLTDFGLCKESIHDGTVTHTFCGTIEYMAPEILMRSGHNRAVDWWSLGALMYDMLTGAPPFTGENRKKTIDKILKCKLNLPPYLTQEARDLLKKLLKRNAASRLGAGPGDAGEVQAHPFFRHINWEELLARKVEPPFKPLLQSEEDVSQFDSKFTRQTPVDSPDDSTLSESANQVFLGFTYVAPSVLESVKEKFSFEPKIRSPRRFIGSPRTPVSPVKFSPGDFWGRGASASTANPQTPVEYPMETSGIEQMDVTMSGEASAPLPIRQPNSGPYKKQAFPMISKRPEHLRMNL
From the text: as §2, §3, §4, §5, §6, §7, §8, §9
as §10, with “2×RPS6 KB1 (p70S6K)/Ser/Thr 07” for “2×ABL1/Tyr 02”, “2.87-17.7” for “0.29-1.26”, “RPS6 KB1 (p70S6K)” for “ABL1”, “Ser/Thr 07” for “Tyr 02”, “1:45000” for “1:128”

[6] = H4 neuroglioma cells expressing human APP695, 22 hours incubation, Table 4a
[7] = 10 μmolar compound concentration, ATP at Km app, read-out: ABL1 inhibition
[8] = read-out: % Inhibition mean ABL1
[9] = 10 μmolar compound concentration, ATP at Km app, read-out: RET inhibition
[10] = read-out: % Inhibition mean RET
[11] = 10 μmolar compound concentration, ATP at Km app, read-out: RPS6KB1 (p70S6K) inhibition
[12] = read-out: % Inhibition mean RPS6KB1 (p70S6K)
[13] = Homo sapiens, H4 neuroglioma cells, same assay as table 4a, prior art compounds, Table 4b

Compound | IC50 [1, 6] [nM] | inhibition at 10 µM [3, 7] [%] | inhibition at 10 µM [3, 8] [%] | inhibition at 10 µM [4, 9] [%] | inhibition at 10 µM [4, 10] [%] | inhibition at 10 µM [5, 11] [%] | inhibition at 10 µM [5, 12] [%] | IC50 [1, 13] [nM] | inhibition at 10 µM ([3]; read-out: % Inhibition mean) [%] | inhibition at 10 µM ([4]; read-out: % Inhibition mean) [%] | inhibition at 10 µM ([5]; read-out: % Inhibition mean) [%] | Ratio AβTotal IC50/Aβ42 IC50 ([2]; Table 4a) | modulation of γ-secretase (in words) [1] | Ratio AβTotal IC50/Aβ42 IC50 ([2]; prior art compounds, Table 4b)
CCCCCn1ncc2c1CCC(Nc1nc3c(-c4ccc(F)cc4C)cccn3n1)C2 (stereo not drawn) [Example 47, [8-(4-fluoro-2-methyl-phenyl)-[1,2,4]triazolo[1,5-a]pyridine-2-yl]-(1-pentyl-4,5,6,7-tetrahydro-1H-indazol-5-yl)-amine] | > 30000 | < 40 | 3 | < 40 | 23 | < 40 | 12 | – | – | – | – | 1 | – | –
Cc1cc(F)ccc1-c1cccn2nc(Nc3ccc4c(cnn4C)c3)nc12 [Example 9, [8-(4-fluoro-2-methyl-phenyl)-[1,2,4]triazolo[1,5-a]pyridine-2-yl]-(1-methyl-1H-indazol-5-yl)-amine] | 1260 | 40 to 80 | 63 | < 40 | 39 | < 40 | 3 | – | – | – | – | 3 | – | –
Fc1cccc(-c2cccn3nc(Nc4ccc5[nH]cnc5c4)nc23)c1 [Cpd. 293 in WO09155551, reference compound] | – | > 80 | – | > 80 | – | > 80 | – | 7000 | 97 | 94 | 85 | – | do not show any modulation | 1
Cc1cc(F)ccc1-c1cccn2nc(NC3CCc4c(cnn4C)C3)nc12 (stereo not drawn) [Example 10, [8-(4-fluoro-2-methyl-phenyl)-[1,2,4]triazolo[1,5-a]pyridine-2-yl]-(1-methyl-4,5,6,7-tetrahydro-1H-indazol-5-yl)-amine] | 380 | < 40 | 1 | < 40 | 18 | < 40 | 2 | – | – | – | – | 27 | – | –
CCn1ncc2c1CCC(Nc1nc3c(-c4ccc(F)cc4C)cccn3n1)C2 (stereo not drawn) [Example 42, (1-Ethyl-4,5,6,7-tetrahydro-1H-indazol-5-yl)-[8-(4-fluoro-2-methyl-phenyl)-[1,2,4]triazolo[1,5-a]pyridine-2-yl]-amine] | 70 | < 40 | 19 | < 40 | 29 | < 40 | 6 | – | – | – | – | 23 | – | –
CC1(C)NC(=O)c2ccc(Nc3nc4c(-c5cccc(F)c5)cccn4n3)cc21 [Cpd. 302 in WO09155551, reference compound] | – | > 80 | – | > 80 | – | > 80 | – | > 10000 | 104 | 98 | 86 | – | do not show any modulation | 1
Cc1cc(F)ccc1-c1cccn2nc(NC3CCc4cnn(C)c4C3)nc12 (stereo not drawn) [Example 40, [8-(4-Fluoro-2-methyl-phenyl)-[1,2,4]triazolo[1,5-a]pyridine-2-yl]-(1-methyl-4,5,6,7-tetrahydro-1H-indazol-6-yl)-amine] | > 30000 | < 40 | 9 | < 40 | 18 | < 40 | 19 | – | – | – | – | 1 | – | –

More lines, main results first:

IC50 [1, 6] [nM] | inhibition at 10 µM [3, 7] [%] | inhibition at 10 µM [3, 8] [%] | inhibition at 10 µM [4, 9] [%] | inhibition at 10 µM [4, 10] [%] | inhibition at 10 µM [5, 11] [%] | inhibition at 10 µM [5, 12] [%] | IC50 [1, 13] [nM] | inhibition at 10 µM ([3]; read-out: % Inhibition mean) [%] | inhibition at 10 µM ([4]; read-out: % Inhibition mean) [%] | inhibition at 10 µM ([5]; read-out: % Inhibition mean) [%] | Compound | Ratio AβTotal IC50/Aβ42 IC50 ([2]; Table 4a) | modulation of γ-secretase (in words) [1] | Ratio AβTotal IC50/Aβ42 IC50 ([2]; prior art compounds, Table 4b)
40 | < 40 | 19 | < 40 | 29 | < 40 | 6 | – | – | – | – | CCn1ncc2c1CCC(Nc1nc3c(-c4cccc(Cl)c4)cccn3n1)C2 (stereo not drawn) [Example 59, [8-(3-Chloro-phenyl)-[1,2,4]triazolo[1,5-a]pyridine-2-yl]-(1-ethyl-4,5,6,7-tetrahydro-1H-indazol-5-yl)-amine] | 49 | – | –
90 | < 40 | 24 | < 40 | 30 | < 40 | 23 | – | – | – | – | CCn1ncc2c1CCC(Nc1nc3c(-c4ccc(OC)nc4)cccn3n1)C2 (stereo not drawn) [Example 71, (1-Ethyl-4,5,6,7-tetrahydro-1H-indazol-5-yl)-[8-(6-methoxy-pyridin-3-yl)-[1,2,4]triazolo[1,5-a]pyridine-2-yl]-amine] | 332 | – | –
70 | < 40 | 11 | < 40 | – | < 40 | – | – | – | – | – | CCn1ncc2c1CCC(Nc1nc3c(-c4ccccc4)cccn3n1)C2 (stereo not drawn) [Example 57, (1-Ethyl-4,5,6,7-tetrahydro-1H-indazol-5-yl)-(8-phenyl-[1,2,4]triazolo[1,5-a]pyridine-2-yl)-amine] | 104 | – | –
40 | < 40 | 14 | < 40 | 23 | < 40 | 22 | – | – | – | – | CCn1ncc2c1CC[C@@H](Nc1nc3c(-c4ccc(F)cc4C)cccn3n1)C2 [Example R-42, (R)-(1-Ethyl-4,5,6,7-tetrahydro-1H-indazol-5-yl)-[8-(4-fluoro-2-methyl-phenyl)-[1,2,4]triazolo[1,5-a]pyridine-2-yl]-amine] | – | – | –
